Results reported in patent US8974834B2, “Method for producing reservoir layer for hoof treatment and reservoir layer” (Ecolab USA Inc., priority 2010, dated 2015).

Legend:
[1] = Chemical analysis of the precipitate (contents of glutaraldehyde and Texapon NSO; Al by XRF); format: physicochemical; conditions: white precipitate from 50 ml solution (a) (31.5 weight % polyaluminium chloride, 7% glutaraldehyde) mixed with 10 g Texapon NSO
Protocol: (§1) 50 ml of an aqueous solution (a) containing approximately 31.5 weight % polyaluminium chloride (dialuminum chloride pentahydroxide), 7% glutaraldehyde was mixed with 10 g Texapon®NSO (C12-C14 alkyl ether sulfate with 2 mole EO). Before mixing the aluminium content of the aqueous solution (a) was about 9.5 weight %. […] The white precipitate was analyzed with respect to its contents of glutaraldehyde, Texapon®NSO. The content of polyaluminium chloride was analyzed by the content of Al-ions by XRF.

[2] = Formation of a precipitate on mixing a surfactant with aqueous polyaluminium chloride/glutaraldehyde solution; format: physicochemical; conditions: mixed with aqueous solution (a) containing polyaluminium chloride and 7% glutaraldehyde
Protocol: as §1
50 ml of an aqueous solution (a) containing 10% polyaluminium chloride and 7% glutaraldehyde was mixed with 50 ml of an aqueous solution (b) containing 10 weight % dodecylbenzenesulphonic acid. Before mixing the aluminium content of the aqueous solution (a) was about 3 weight %.
50 ml of an aqueous solution (a) containing 10% polyaluminium chloride, 7% glutaraldehyde was mixed with 50 ml of an aqueous solution (b) containing 10 weight % N-alkyl(C12-C16)-N-benzyl-N,N-dimethylammonium chloride (Barquat®DM-50).

| Structure (SMILES) | quantified values (content in the precipitate) [1] [%] | formation of a precipitate upon mixing [2] |
| --- | --- | --- |
| O=CCCCC=O [glutaraldehyde] | 3.7 | – |
| CCCCCCCCCCCCc1ccc(S(=O)(=O)O)cc1 [dodecylbenzenesulphonic acid] | – | white solid immediately was formed |
